# Patent US8586300B2, “Genetic polymorphisms and infertility” (The University of North Carolina at Chapel Hill, priority 2008, dated 2013)
# Legend:
# sperm [1] = assay: Sperm motility (progressively motile sperm, hemocytometer) after betaine supplementation via drinking water; type: in vivo, mouse
# Procedure: (§1) FIGS. 17A-17D are bar graphs showing the results of betaine supplementation on sperm concentration, motility and mitochondrial function in CHDH+/+ (WT), CHDH+/−, and CHDH−/− (KO) mice. […] Spermatozoa concentration was determined by counting cells using a hemocytometer. Results are presented as mean±SEM, n=9-11 animals per genotype. […] Motility assays were performed by counting the number of progressively motile sperm per total number of sperm in 5 squares of a hemocytometer. The results are presented as the mean % motility±SEM, p<0.001, n=8-9 animals per genotype. […] Absorbance values were normalized to the number of sperm assayed. All assays were performed in duplicate. The value for each animal is the mean of 4 assays (2 cauda epididymii, each assayed in duplicate per animal). Results are presented as the mean±SEM, p<0.05, n=5 animals/group. […] The number of cells that fluoresced red was counted in 5 random fields of vision for each sample and results are expressed as a percent of the total cells in those fields. Results are presented as mean±SEM, p<0.001, n=5 animals/group.
# Eight to 10 week old CHDH^+/+ and CHDH^−/− male mice were anesthetized with Halothane (Henry Schein, Inc.). A V-shaped incision was made beginning at the penis and extending out to the midline of the body. Testis and epididymis were excised from the animal and immediately placed in a 6-well tissue culture dish containing approximately 1 ml of M16 media (Sigma) in a well. All media, plates and tubes used were warmed to 37° C. prior to the dissection. Any plate or tube containing sperm, once isolated, was kept at 37° C. with 5% CO2 for the duration of the experiment. The cauda epididymis was separated from the other structures and then placed in a 24-well plate containing 300 μl of fresh M16 media in each well. The cauda epididymis was then cut several times and the dish was incubated at 37° C. with 5% CO2 for 15 minutes. Sperm concentration was determined by counting cells with a hemocytometer. Percent motility was determined by counting the number of progressively motile sperm per total number of sperm present using a hemocytometer. “Progressively motile sperm” refers to sperm that swim forward in a somewhat straight line. Sperm that were moving, but that were swimming in circles were classified as non-progressively motile.
# To determine whether sperm motility can be restored through betaine supplementation, CHDH−/− mice were given drinking water supplemented to 2% betaine for 38 days.
# spermatozoa mitochondria [2] = assay: JC-1 staining, mitochondrial membrane potential in sperm after betaine supplementation; type: in vivo, mouse; settings: JC-1 staining of sperm
# Procedure: as §1, with “animal).” for “animal). Results are presented as the mean±SEM, p<0.05, n=5 animals/group.”, “Results are presented as mean±SEM, p<0.001, n=5 animals/group.” left out
# To detect changes in mitochondrial membrane polarization, JC-1 staining was performed on sperm harvested from cauda epididymis (see FIGS. 8-11 and 13). […] 20 μl of each stained sample was examined with a fluorescence microscope (Olympus BX50, Olympus America, Inc., Center Valley, Pa., United States of America) and large band epifluorescence filters. […] Five fields of vision were counted for each sample and results expressed as percent of total cells.
# spermatozoa mitochondria [3] = assay: MTT assay of mitochondrial function in sperm after betaine supplementation; type: in vivo, mouse
# Procedure: as §1
# Sperm were isolated from the cauda epididymis as described above. An MTT (3-(4,5-dimethyl thiazol-2-yl)-2,5-diphenyl tetrazolium bromide) assay was conducted to measure mitochondrial function (Nasr-Esfahani, Aboutorabi et al. 2002) with the following modification: rather then visualizing positive MTT staining microscopically, MTT assays were conducted using a commercially available MIT assay kit (CellTiter 96 Non-radioactive Cell Proliferation Assay, Promega, Madison, Wis., United States of America) and cells were solubolized with the provided Solubolization/Stop Mix. 100 μL of isolated sperm were incubated in F10 media (Invitrogen Inc., Carlsbad, Calif., United States of America) in a 96-well plate with 15 μL of MTT solution at 37° C./5% CO2 for 2 hours. Following solubolization, the absorbance of each sample was read at a wavelength of 562 nm using a BIOTEK® plate reader (BioTek Instruments Inc., Winooski, Vt., United States of America). Absorbance was normalized to the number of sperm assayed.
# [4] = humans, dietary supplementation; cited from earlier work
# sperm [5] = assay: Sperm concentration (hemocytometer) after betaine supplementation; type: in vivo, mouse
# Procedure: as §1, with “Results are presented as mean±SEM, p<0.001, n=5 animals/group.” left out
# Eight to 10 week old CHDH^+/+ and CHDH^−/− male mice were anesthetized with Halothane (Henry Schein, Inc.). […] Sperm concentration was determined by counting cells with a hemocytometer. Percent motility was determined by counting the number of progressively motile sperm per total number of sperm present using a hemocytometer. […]
# [6] = test system: isolated rat hepatic mitochondria; settings: inhibition of electron transport chain Complex I (rotenone) or Complex II (malonate); cited from earlier work
"MTT conversion compared to untreated CHDH+/+ sperm (spermatozoa mitochondria [3]; CHDH+/+ spermatozoa, betaine via drinking water for 42 days)",SMILES,"effect on motility of spermatozoa (sperm [1]; CHDH+/+ or CHDH+/- spermatozoa, betaine via drinking water for 42 days)","sperm motility (sperm [1]; CHDH+/- mice, betaine supplementation)","asthenospermic phenotype (sperm [1]; CHDH-/- males, betaine via drinking water for 42 days)","progressive sperm motility (sperm [1]; CHDH-/- mice, drinking water supplemented to 2% betaine for 38 days)",effect on inner mitochondrial membrane potential (ΔΨm) (spermatozoa mitochondria [2]),"decrease of MTT conversion (spermatozoa mitochondria [3]; CHDH+/+ sperm, betaine supplementation) [%]","amount of MTT reduction (spermatozoa mitochondria [3]; CHDH+/- or CHDH-/- spermatozoa, betaine supplementation)","changes in mitochondrial function, as measured by MTT assay and JC-1 staining (spermatozoa mitochondria [3]; betaine via drinking water for 42 days, exception CHDH+/+ MTT conversion)",plasma tHcy concentrations [4],"effect on sperm concentration (sperm [5]; CHDH+/+, CHDH+/- or CHDH-/- mice, betaine supplementation)","number of sperm produced (sperm [5]; males of any CHDH genotype, betaine via drinking water for 42 days)",choline-stimulated mitochondrial respiration [6]
significantly decreased,C[N+](C)(C)CC(=O)O [betaine],nor was there any effect,unaffected,"improved, but not fully rescued",approximately 30%,no effect,67,did not change,No changes,effective in lowering,did not have any effect,did not alter,–
–,O=C(O)CC(=O)O [malonate],–,–,–,–,–,–,–,–,–,–,–,decreases
–,C=C(C)[C@H]1Cc2c(ccc3c2O[C@@H]2COc4cc(OC)c(OC)cc4[C@@H]2C3=O)O1 [rotenone],–,–,–,–,–,–,–,–,–,–,–,decreases
